Test results from US10071042B2, “External dermatological agent for anti-ageing” (Hayashibara Co., Ltd., priority 2014, dated 2018).
Marks after values point to notes of the source that are not given here.

Tests used:
filaggrin protein = assay: Expression of filaggrin protein, Western blot filaggrin/actin (Experiment 3); format: cell-based, human; settings: control = 100%
Protocol: Then, the expression of filaggrin was induced in such a manner of further culturing the cells for another four days, while replacing the culture medium with an EpiLife medium supplemented with 2 μM, 5 μM, or 10 μM of sodium adenosine N1-oxide 5′-phosphate every three days. […] After four days culture, the resultant cells were washed with Dulbecco's phosphate buffered saline, added with 0.1 mL of an SDS sample buffer (pH 6.8) containing 62.5 mM Tris-HCl, 2% SDS, 10% glycerol, and 50 mM DTT along with a protease inhibitor, and collected with a cell scraper. The collected cells were boiled for 10 min, disrupted ultrasonically, and quantified with “Pierce BCA Protein Assay Kit”, commercialized by ThermoFisher Scientific K. K., Yokohama, Japan. A prescribed amount of the resulting disrupted cells was sampled and subjected to SDS-polyacrylamide gel electrophoresis in an amount of 100 μg/lane, and the resulting gel was transferred to a PVDF membrane. The resulting transferred PVDF membrane was blocked with “Block Ace”, commercialized by DS Pharma Biomedical Co., Ltd., Osaka, Japan, reacted with a 200-fold dilution of “AKH1”, a mouse anti-filaggrin antibody, commercialized by, Santa Cruz Biotechnology Inc., CA, USA, or a 20,000-fold dilution of “MAB1501”, a mouse actin antibody, commercialized by Chemicon International Inc., MA, USA, as a first antibody, and then reacted with a 2,000-fold dilution of “P0447”, an HRP-labeled anti-mouse immunoglobulin, commercialized by Dako Japan, Tokyo, Japan, as a secondary antibody. After the reaction, by using ECL Plus Western Blotting Detection System, commercialized by GE Healthcare Japan, Tokyo, Japan, bands were detected on “Hyperfilm ECL”, a chemiluminescent film commercialized by GE Healthcare Japan, Tokyo, Japan. The detected bands were analyzed and quantified with “Image J”, an image analyzing software. A control system with no addition of any of the test substances was provided and the increasing intensity ratio of a band of filaggrin/actin was regarded as 100%, with which data for the increased percentages of the intensity ratios of bands of filaggrin/actin of the test substances were comparatively evaluated.

endothelin-1 = assay: Endothelin-1 production after ultraviolet B irradiation, ELISA (Experiment 6); format: cell-based, human; settings: for Production level of endothelin-1 (%): ultraviolet B 40 mJ/cm^2, control = 100%
Protocol: Normal human epidermal keratinocytes were proliferated to a confluent state at which the cells were grown over the entire bottom edge of each well of 96-well microplates by using “EpiLife”, a product name of a culture medium containing a growth factor for keratinocytes, commercialized by Life Technologies Corporation, CA, USA, and further cultured for another two days while replacing the medium with a fresh culture medium free of such a growth factor. Thereafter, the resulting cultures were added with sodium adenosine N1-oxide 5′-phosphate to give a concentration of 10, 20, or 50 μM, and allowed to stand for six hours. The cultured cells were washed with Hanks buffer, irradiated with ultraviolet B radiation at an intensity of 40 mJ/cm^2, and further cultured for 24 hours after the addition of a culture medium containing the growth factor. Endothelin-1 in the resulting supernatants was detected with an endothelin-1 specific ELISA kit, commercialized by R&D Systems Inc., MN, USA, colored with tetramethylbenzidine, and measured for absorbance at a wavelength of 450 nm. A control system was provided and similarly treated as above except for not adding sodium adenosine N1-oxide 5′-phosphate and then determined for the production level of endothelin-1 in the resulting culture supernatant to be regarded as 100%. The production level of endothelin-1 for each test substance was comparatively evaluated based on the following equation. Equation: Production level of endothelin-1 (relative value (%))=[(Absorbance of a sample with a test substance)/(Absorbance of control)]×100 The experiment was repeated three times, and the data was compared to that of control with the Dunnett's multiple comparisons test. The symbol “*” means a level of significance of p<0.01.

## Nc1c2ncn([C@@H]3O[C@H](COP(=O)([O-])O)[C@@H](O)[C@H]3O)c2nc[n+]1[O-].[Na+] [Sodium adenosine N1-oxide 5′-phosphate, sodium adenosine N1-oxide 5′-phosphate]
Filaggrin protein; 2 μM
  Relative expression level of filaggrin protein (%): 133%
Filaggrin protein; 5 μM
  Relative expression level of filaggrin protein (%): 206%
Filaggrin protein; 10 μM
  Relative expression level of filaggrin protein (%): 308%
endothelin-1; 10 μM
  Production level of endothelin-1 (%): 104.5%
endothelin-1; 20 μM
  Production level of endothelin-1 (%): 87.9%
endothelin-1; 50 μM, compared to control
  production level of endothelin-1 reduced by: about 50%
endothelin-1; 50 μM
  Production level of endothelin-1 (%): 49.9* %
